According to PubChem BioAssay (NCI):
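Assay format: 96-well plates, 48-hour exposure. GI50 marks 50% less growth. TGI is the concentration that stops growth completely.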

Assays:
Experiment in all cases: DTP human tumour cell line panel, 48 h
COLO 205 colon = system: COLO 205 colon
SK-MEL-28 melanoma = system: SK-MEL-28 melanoma
SK-MEL-2 melanoma = system: SK-MEL-2 melanoma
PC-3 prostate = system: PC-3 prostate
NCI-H522 lung = system: NCI-H522 lung
NCI/ADR-RES ovarian = system: NCI/ADR-RES ovarian
U251 CNS = system: U251 CNS
OVCAR-5 ovarian = system: OVCAR-5 ovarian
IGROV1 ovarian = system: IGROV1 ovarian

SMILES	TGI (COLO 205 colon) [µM]	TGI (SK-MEL-28 melanoma) [µM]	TGI (SK-MEL-2 melanoma) [µM]	TGI (PC-3 prostate) [µM]	TGI (NCI-H522 lung) [µM]	TGI (NCI/ADR-RES ovarian) [µM]	TGI (U251 CNS) [µM]	GI50 (COLO 205 colon) [µM]	GI50 (SK-MEL-28 melanoma) [µM]	GI50 (SK-MEL-2 melanoma) [µM]	GI50 (PC-3 prostate) [µM]	GI50 (NCI/ADR-RES ovarian) [µM]	GI50 (U251 CNS) [µM]	GI50 (OVCAR-5 ovarian) [µM]	TGI (OVCAR-5 ovarian) [µM]	GI50 (IGROV1 ovarian) [µM]	TGI (IGROV1 ovarian) [µM]	GI50 (NCI-H522 lung) [µM]
CCCCCCCCCCCCNC(C)=O	31.6	31.4	28.1	28.4	27.2	33.3	30.1											
Nc1ccc2c(c1)C(=O)C(=O)c1c-2nc2ccccn12	26.6	2.64	3.7	10.5		5.98	2.58	10.8	1.26	1.68	1.78	1.85	1.28	1.92	3.57	1.52	3.55	
CCCCC[C@H](O)/C=C/[C@@H]1[C@@H](C/C=C\CCCC(=O)O)[C@@H](O)C[C@H]1O	> 100	> 100	> 100	> 100	> 100	> 100	> 100	> 100	> 100	> 100	> 100	> 100	> 100	> 100	> 100	> 100	> 100	> 100
COc1cc2c(cc1O)CC[C@@H]1[C@@H]2CC[C@]2(C)[C@@H](NCCN(C)C)CC[C@@H]12	0.4	0.262	0.517	0.599	0.5		0.458	0.107	0.0883	0.127	0.188		0.135	0.314	0.856	0.407	0.954	0.108
OC1[C@H]([C@H]2CCCC[C@@H]2O)CCC[C@@H]1[C@@H]1CCCC[C@H]1O (some centres not stated)	> 100	> 100	> 100		> 100		> 100								> 100		> 100	
Cc1c2cc[n+](C)cc2c(C)c2c1sc1ccccc12	7.71	6.15	7.71	13.1	2.4	> 100	1.15								15.6		28.4	
Cc1ccc(S(=O)(=O)OC2CCN(C)CC2)cc1	42.3	> 100	> 100	> 100	46.5	> 100	> 100								> 100		> 100	
OC(c1cccc(-n2ccc(C(F)(F)F)n2)c1)c1cnccc1NC1CCCCCC1 (configuration not stated)		3.2	3.82	3.09	3.59	3.35	3.24		1.77	2.01	1.59	1.81	1.66	1.64	3.01	1.53	2.92	1.76
CC1CC[C@]2(C(=O)O)CCC3(COC(=O)/C=C\c4ccc(O)cc4)C(=CCC4[C@@]5(C)CC[C@H](O)C(C)(C)C5CC[C@]43C)[C@@H]2[C@H]1C (some centres not stated)	50.9	35.5	51.8		44.6		23.4								48.9		26.8	
F	> 6870		2890	> 6870	> 6870	> 6870	> 6870	2830		1440	3920	2530	2870	2560	> 6870	2800	> 6870	4970
NC1=NC(=O)/C(=C/c2ccccc2[N+](=O)[O-])C(N)=N1	> 100	> 100	> 100		> 100		> 100								> 100		> 100	
CN1N=CSC12C(=O)N(c1ccc(Cl)cc1)C(=O)N2c1ccc(Cl)cc1 (configuration not stated)	3.38	> 100			5.73		53.6										> 100	
Cc1cn(Cc2ccccc2CCO)c(=S)[nH]c1=O	> 100	> 100	> 100		> 100		> 100								> 100		> 100	
COc1cc(/C=C/c2ccncc2)cc(OC)c1OC	> 100	> 100			> 100		> 100								97.9		> 100	
CC(C)(C)NNC(=O)/C(=C/c1ccc([N+](=O)[O-])cc1)NC(=O)c1ccccc1	79.2	> 100	> 100		73.3		> 100								> 100		> 100	
Cc1cc(N(CCC#N)CCC#N)ccc1/C=C1N=C(/C=C\c2ccccc2)OC\1=O	> 100	> 100	> 100		> 100		> 100								> 100		> 100	
NC(=O)NNCc1ccccc1	> 100		> 100	> 100	> 100	> 100	> 100								> 100		> 100	
CC(C)(C)OC1=C(OC(C)(C)C)C(O)(c2ccccc2)C1=O (configuration not stated)	> 100	> 100					> 100								> 100		> 100	
C[N+](C)(C)CC1CCCC/C1=N\OC(=O)c1ccccc1 (configuration not stated)	> 100	> 100			> 100		> 100								> 100		> 100	
CN1C(=O)CC(c2cccc(C3CC(=O)N(C)C3=O)n2)C1=O (configuration not stated)	> 100	> 100	> 100		> 100		> 100								> 100		> 100	
O=C(Nc1c(O)[nH]c(=S)[nH]c1=O)c1ccccc1F	> 100	> 100	> 100		> 100		> 100								> 100		> 100	
COc1cccc2c1C(=O)C=CC2=O	20.5	33.6	19.8		5		13.9								33		27.2	
COc1ccc(C2CC(=O)c3c(O)cc(O)cc3O2)cc1O (configuration not stated)	> 100	> 100	> 100		> 100		> 100								> 100		> 100	
